# In patent publication US9192605B2, “Compositions and methods for treating parkinson's disease” (priority 2009, dated 2015):
# Like-named read-outs stand apart in the source and are kept apart here.
# Columns and labels:
# [1] = test system: rats; experiment: locomotion, exploration and grooming of rats given low-dose haloperidol; format: in vivo, rat
# [2] = for Freezing during “on” score / Motor Fluctuations (presence) score / Motor Fluctuations (severity) score / Rise from Chair score / ADL Speech score / Alternating Movements score / Changing position, i.e. turning in bed score / Dressing score / Dyskinesias (presence) score / Dyskinesias (severity) score / Feeding score / Gait score / Handwriting score / Hygiene score / Postural Tremor score / Rigidity score / Speech score / Swallowing score / Walking score / Rest Tremor score: 40 micrograms haloperidol/day oral, one patient; for Freezing during “on” score / Motor Fluctuations (presence) score / Motor Fluctuations (severity) score / Rise from Chair score: Baseline Time 1 score 0; for ADL Speech score / Alternating Movements score / Changing position, i.e. turning in bed score / Dressing score / Dyskinesias (presence) score / Dyskinesias (severity) score / Feeding score / Gait score / Handwriting score / Hygiene score / Postural Tremor score / Rigidity score / Speech score / Swallowing score / Walking score: Baseline Time 1 score 1; for Rest Tremor score: Baseline Time 1 score 2
# [3] = clinical use as antipsychotic; cited from earlier work
# [4] = biological target: dopamine D2 receptors (Homo sapiens, UniProt P14416); details: PET with [11C]raclopride, over 24 hours, schizophrenia patients and volunteers; cited from earlier work
# [5] = biological target: human cloned dopamine D2 receptors (Homo sapiens, UniProt P14416); details: cited from earlier work
compound,measurement,setting,value
O=C(CCCN1CCC(O)(c2ccc(Cl)cc2)CC1)c1ccc(F)cc1 [haloperidol],behaviour of the animals,"[1]; 0.0025 mg/kg/day, 5 days","heightened locomotion, active exploration and good grooming"
same,behaviour of the animals,"[1]; 0.005 mg/kg, on days 3-5 or upon stopping the haloperidol",spontaneously increased locomotion and well-being
same,behaviour of the animals,[1]; haloperidol 0.03 mg/kg down to 0.0025 mg/kg,heightened locomotion and active exploration
same,Freezing during “on” score,[2]; Score Time 2,0
same,Motor Fluctuations (presence) score,[2]; Score Time 2,0
same,Motor Fluctuations (severity) score,[2]; Score Time 2,0
same,Rise from Chair score,[2]; Score Time 2,0
same,ADL Speech score,[2]; Score Time 2,0
same,Alternating Movements score,[2]; Score Time 2,0
same,"Changing position, i.e. turning in bed score",[2]; Score Time 2,1
same,Dressing score,[2]; Score Time 2,1
same,Dyskinesias (presence) score,[2]; Score Time 2,0
same,Dyskinesias (severity) score,[2]; Score Time 2,0
same,Feeding score,[2]; Score Time 2,1
same,Gait score,[2]; Score Time 2,0
same,Handwriting score,[2]; Score Time 2,1
same,Hygiene score,[2]; Score Time 2,1
same,Postural Tremor score,[2]; Score Time 2,1
same,Rigidity score,[2]; Score Time 2,2
same,Speech score,[2]; Score Time 2,0
same,Swallowing score,[2]; Score Time 2,0
same,Walking score,[2]; Score Time 2,0
same,Rest Tremor score,[2]; Score Time 2,2
same,Freezing during “on” score,[2]; Score Time 3,0
same,Motor Fluctuations (presence) score,[2]; Score Time 3,0
same,Motor Fluctuations (severity) score,[2]; Score Time 3,0
same,Rise from Chair score,[2]; Score Time 3,0
same,ADL Speech score,[2]; Score Time 3,0
same,Alternating Movements score,[2]; Score Time 3,1
same,"Changing position, i.e. turning in bed score",[2]; Score Time 3,1
same,Dressing score,[2]; Score Time 3,1
same,Dyskinesias (presence) score,[2]; Score Time 3,0
same,Dyskinesias (severity) score,[2]; Score Time 3,0
same,Feeding score,[2]; Score Time 3,1
same,Gait score,[2]; Score Time 3,1
same,Handwriting score,[2]; Score Time 3,1
same,Hygiene score,[2]; Score Time 3,1
same,Postural Tremor score,[2]; Score Time 3,1
same,Rigidity score,[2]; Score Time 3,2
same,Speech score,[2]; Score Time 3,0
same,Swallowing score,[2]; Score Time 3,0
same,Walking score,[2]; Score Time 3,0
same,Rest Tremor score,[2]; Score Time 3,2
same,clinical observation: involuntary movements,"[2]; Time 1 or Time 2, apart from resting tremor of right hand present at all times",No involuntary movements noted
same,overall conclusion,"[2]; baseline to Time 1 and 2, most noticeable walking and overall presentation",A slight improvement from baseline to Time 1 and 2 on certain markers
same,clinical observation: rigidity on palpation,"[2]; elbow joint, no rigidity on left, 40 micrograms/day oral",Slight increase in rigidity on palpation of elbow joint on right side
same,"clinical observation: appearance, facial features","[2]; time 1 and 2 vs baseline, 40 micrograms/day oral","appeared brighter, less flat facial features"
Cc1cc2c(s1)Nc1ccccc1N=C2N1CCN(C)CC1 [olanzapine],extrapyramidal signs (EPS) in patients,[3],dose-dependent incidence of extrapyramidal signs
OCCOCCN1CCN(C2=Nc3ccccc3Sc3ccccc32)CC1 [quetiapine],extrapyramidal signs (EPS) in patients,[3],essentially no EPS occurs
same,time course of human striatum D2 occupancy,[4],rapidly falls off within 24 hours
[^3H]quetiapine,rate of release from D2 receptors relative to [3H]haloperidol or [3H]chlorpromazine,[5],at least one hundred times faster
